Measurements taken from patent US4450272A, “Antiatherosclerotic 1-piperazine-thicarboxamides” (American Cyanamid Company, priority 1982, dated 1984).

Tests used:
[1] = molecular target: T1, fatty acyl CoA:cholesterol acyl transferase (ACAT) (Rattus norvegicus, UniProt O70536); assay: Inhibition of ACAT (fatty acyl CoA:cholesterol acyl transferase) in rat adrenal supernatant; format: biochemical; details: rat adrenals, final concentration 5.2 μg./ml., pH 7.4, 37° C.
T1 construct: The supernatant, containing the microsomal fraction, served as the source of the cholesterol-esterifying enzyme; from tissue; host or cells: rat adrenals, 1000 x g supernatant containing the microsomal fraction
T1 sequence (O70536 1-545): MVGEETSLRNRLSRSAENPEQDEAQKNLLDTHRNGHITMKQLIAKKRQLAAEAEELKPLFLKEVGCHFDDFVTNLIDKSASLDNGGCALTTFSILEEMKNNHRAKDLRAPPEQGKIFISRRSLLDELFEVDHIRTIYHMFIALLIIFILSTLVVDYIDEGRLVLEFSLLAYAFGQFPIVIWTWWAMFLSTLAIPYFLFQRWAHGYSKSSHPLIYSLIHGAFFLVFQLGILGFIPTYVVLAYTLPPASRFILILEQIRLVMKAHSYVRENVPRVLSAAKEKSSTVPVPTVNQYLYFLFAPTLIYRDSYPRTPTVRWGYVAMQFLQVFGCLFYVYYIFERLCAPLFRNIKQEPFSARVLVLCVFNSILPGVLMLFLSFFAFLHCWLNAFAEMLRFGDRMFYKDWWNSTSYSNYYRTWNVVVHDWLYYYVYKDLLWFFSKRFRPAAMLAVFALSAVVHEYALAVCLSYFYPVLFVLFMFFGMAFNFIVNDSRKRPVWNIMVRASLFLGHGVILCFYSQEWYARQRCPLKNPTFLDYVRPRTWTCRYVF
Description: Compounds were tested for their ability to inhibit ACAT according to the following procedure:
Rat adrenals were homogenized in 0.2 M monobasic potassium phosphate buffer, pH 7.4, and centrifuged at 1000 times gravity for 15 minutes at 5° C. The supernatant, containing the microsomal fraction, served as the source of the cholesterol-esterifying enzyme, fatty acyl CoA:cholesterol acyl transferase (ACAT). A mixture comprising 50 parts of adrenal supernatant, 10 parts of albumin (BSA) (50 mg./ml.), 3 parts of test compound (final concentration 5.2 μg./ml.) and 500 parts of buffer was preincubated at 37° C. for 10 minutes. After treatment with 20 parts of oleoyl CoA (^14 C -0.4 μCi) the mixture was incubated at 37° C. for 10 minutes. A control mixture, omitting the test compound, was prepared and treated in the same manner. The lipids from the incubation mixture were extracted into an organic solvent and separated by thin-layer chromatography. The cholesterol ester fraction was counted in a scintillation counter. This procedure is a modification of that described by Hashimoto, et. al., Life Scie., 12 (Part II), 1-12 (1973).
Compounds which produce a statistically significant inhibition of the ACAT enzyme are considered to be active.

[2] = tested on: serum lipids (sterol, triglycerides); assay: Ability to lower lipid levels in mammals (serum cholesterol and triglycerides in rats, 5 days in diet); format: in vivo, male rats COBS, CD, SD strain; details: male rats, oral, 0.1% compound in diet, vs control; for inhibition in vivo at 0.1 % in diet: Rattus norvegicus, 120 h, read-out: % Lowering of Serum Triglycerides
Description: The compounds were also tested for their ability to lower lipid levels in mammals. The compounds were administered orally admixed with diet to groups of four male rats COBS, CD, SD strain from Charles River Breeding Laboratories, Inc., Wilmington, Mass. A control group of eight rats was maintained on the diet alone; test groups were maintained on the diet plus the indicated percentage of test compound by weight. After 5 days treatment, serum cholesterol and triglyceride concentrations were determined by direct enzymatic procedures using a Centrifichem® System 400 autoanalyzer (Union Carbide Co.). Cholesterol concentrations were determined by the combined cholesterol esterase-cholesterol oxidase procedure of Roelschlau et. al., Zeit. Klin. Chem. Klin. Biochem., 12, 226 (1974). Triglycerides were determined by the combined method of lipase catalyzed hydrolysis of triglycerides to glycerol and free fatty acids [Bucolo, G. and David, H., Clin. Chem., 19, 476 (1973) and Wahlefeld, A. W., in "Methods of Enzymatic Analysis", Vol. 4, Bergmeyer, H. U., Editor, Academic Press, New York, N.Y. (1974), pp. 1831-1835] and the enzymatic oxidation of the glycerol which leads to the production of colored formazan [Stavropoulos, W. S. and Crouch, R. D., Clin. Chem., 20, No. 7, 857 (1974)]. […] Compounds which produce statistically significant lowering of either sterol or triglycerides are considered to be active.

aortic sterol content = assay: Ability to decrease aortic sterol content without effecting serum sterol, cholesterol-fed cockerels; format: in vivo, Day-old-cockerels; design: key: Active: Compounds which produce statistically significant decreases in the aortic sterol content without having an effect on serum sterol are considered to be active; details: 525 mg. test compound and 20 g. cholesterol per kg. of diet, 14 days
Description: The compounds were further tested for their ability to decrease aortic sterol content without effecting serum sterol.
Day-old-cockerels were placed on diets consisting of pullet starter mash supplemented with either 20 g. cholesterol (control group) or 20 g. cholesterol and 525 mg. test compound (drug-treated group) per kg. of diet.
For the control diet 20 g. of cholesterol is dissolved in 200 ml. of chloroform, mixed into one kg. of pullet starter mash and then the chloroform is removed by evaporation.
For the drug-treatment group 525 mg. of the test compound is dissolved in 100 ml. of chloroform, mixed into a diet prepared as described above and then the chloroform is evaporated.
The cockerels were housed three per cage and given water and their respective diet ad libitum for 14 days. Blood was collected by cardiac puncture and the serum was saponified [Trinder, P., Analyst, 77, 321 (1952)] and extracted and the cholesterol content determined [Zlatkis, A. et. al., J. Lab. Clin. Med., 41, 486 (1953)]. The aortae were removed, cleaned of adventitial tissue and the sterol content determined according to the above procedures. Compounds which produce statistically significant decreases in the aortic sterol content without having an effect on serum sterol are considered to be active.

Structure (SMILES): S=C(Nc1ccc(Cl)cc1)N1CCN(c2cnccn2)CC1 [4'-Chloro-4-(2-pyrazinyl)-1-piperazinethiocarboxanilide]
- inhibition at 5.2 µg/mL [1]: 31%
- inhibition in vivo at 0.1 % in diet [2]: 49%

Structure (SMILES): Fc1ccccc1NC(=S)N1CCN(c2cnccn2)CC1 [2'-Fluoro-4-(2-pyrazinyl)-1-piperazinethiocarboxanilide]
- inhibition in vivo at 0.1 % in diet [2]: 21%

Structure (SMILES): S=C(Nc1ccccc1)N1CCN(c2cnccn2)CC1 [N--Phenyl-4-(2-pyrazinyl)-1-piperazinethiocarboxamide]
- inhibition in vivo at 0.1 % in diet [2]: 52%
- Result (decrease of aortic sterol content without effect on serum sterol) (aortic sterol content): Active

Structure (SMILES): CCNC(=S)N1CCN(c2cnccn2)CC1 [N--Ethyl-4-(2-pyrazinyl)-1-piperazinethiocarboxamide]
- Result (decrease of aortic sterol content without effect on serum sterol) (aortic sterol content): Active

Structure (SMILES): CCNC(=S)N1CCN(c2cncc(OC)n2)CC1 [N-Ethyl-4-(6-methoxy-2-pyrazinyl)-1-piperazinethiocarboxamide]
- inhibition at 5.2 µg/mL [1]: 40%
- inhibition in vivo at 0.1 % in diet [2]: 38%

Structure (SMILES): CC(C)c1ccc(NC(=S)N2CCN(c3cnccn3)CC2)cc1 [4'-Isopropyl-4-(2-pyrazinyl)-1-piperazinethiocarboxanilide]
- inhibition at 5.2 µg/mL [1]: 56%

Structure (SMILES): N#Cc1ccc(NC(=S)N2CCN(c3cnccn3)CC2)cc1 [4'-Cyano-4-(2-pyrazinyl)-1-piperazinethiocarboxanilide]
- inhibition in vivo at 0.1 % in diet [2]: 55%
- Result (decrease of aortic sterol content without effect on serum sterol) (aortic sterol content): Active

Structure (SMILES): S=C(NCCc1ccccc1)N1CCN(c2cnccn2)CC1 [N-Phenethyl-4-(2-pyrazinyl)-1-piperazinethiocarboxamide]
- inhibition at 5.2 µg/mL [1]: 33%
- % Lowering of Serum Sterol [2]: 16%

Structure (SMILES): CNC(=S)N1CCN(c2cnccn2)CC1 [N-Methyl-4-(2-pyrazinyl)-1-piperazinethiocarboxamide]
- inhibition in vivo at 0.1 % in diet [2]: 31%
- Result (decrease of aortic sterol content without effect on serum sterol) (aortic sterol content): Active

Structure (SMILES): S=C(Nc1c(Cl)cccc1Cl)N1CCN(c2cnccn2)CC1 [2',6'-Dichloro-4-(2-pyrazinyl)-1-piperazinethiocarboxanilide]
- inhibition in vivo at 0.1 % in diet [2]: 37%

Structure (SMILES): S=C(NC1CCCCC1)N1CCN(c2cnccn2)CC1 [N-Cyclohexyl-4-(2-pyrazinyl)-1-piperazinethiocarboxamide]
- inhibition at 5.2 µg/mL [1]: 31%
- inhibition in vivo at 0.1 % in diet [2]: 43%

Structure (SMILES): Fc1ccc(NC(=S)N2CCN(c3cnccn3)CC2)cc1 [4'-Fluoro-4-(2-pyrazinyl)-1-piperazinethiocarboxanilide]
- inhibition in vivo at 0.1 % in diet [2]: 37%

Structure (SMILES): S=C(Nc1ccccc1Cl)N1CCN(c2cnccn2)CC1 [2'-Chloro-4-(2-pyrazinyl)-1-piperazinethiocarboxanilide]
- inhibition in vivo at 0.1 % in diet [2]: 49%

Structure (SMILES): CCNC(=S)N1CCN(c2ccc3ccccc3n2)CC1 [N-Ethyl-4-(2-quinolyl)-1-piperazinethiocarboxamide]
- inhibition at 5.2 µg/mL [1]: 48%
